12 molecules from US20020049223A1, “Quinoline and naphthyridine carboxylic acid antibacterials” (priority 1999, published 2002) can be followed below.

The term melting point denotes the temperature, or range, at which the solid turns liquid.

The test system of data set [1] is Streptococcus pneumoniae ATCC 6303. Nature of the data set: Assay A: in vitro antibacterial activity, agar dilution MIC. Particulars: Table 1, Assay A, BHI agar, 35-37° C., about 20 to 24 hours; code F = Streptococcus pneumoniae ATCC 6303; unit assumed. Type of data set: cell-based. As to the method: (§1) Assay A. Determination of Biological Activity In Vitro Assay of Antibacterial Activity
(§2) Representative compounds of the invention were assayed in vitro for antibacterial activity. Twelve petri dishes containing successive aqueous dilutions of the test compound mixed with sterilized Brain Heart Infusion (BHI) agar (Difco 0418-01-5) (10 mL) were prepared. Each plate was inoculated with 1:100 (or 1:10 for slow-growing strains, such as Micrococcus and Streptococcus) dilutions of up to 32 different microorganisms using a Steers replicator block. The inoculated plates were incubated at 35-37° C. for about 20 to about 24 hours. In addition, a control plate with BHI agar and no test compound was prepared and incubated at the beginning and end of each test.
(§3) An additional plate containing a compound having known susceptibility patterns for the organisms being tested and belonging to the same antibiotic class as the test compound was also prepared and incubated as a further control and to provide test-to-test comparability. Ciprofloxacin was used for this purpose.
(§4) After incubation, each plate was visually inspected. The minimum inhibitory concentration (MIC) was defined as the lowest concentration of drug yielding no growth, a slight haze, or sparsely isolated colonies on the inoculum spot as compared to the growth control.

Data set [2] concerns Haemophilus influenzae DILL AMP R. Described as above. Type of data set: cell-based. Particulars: Table 1, Assay A, BHI agar, 35-37° C., about 20 to 24 hours; code E = Haemophilus influenzae DILL AMP R; unit assumed. As to the method:
as §1, §2, §3, §4

The test system of data set [3] is Moraxella catarrahalis 2604. The description is as above. The format is cell-based. Particulars: Table 1, Assay A, BHI agar, 35-37° C., about 20 to 24 hours; code C = Moraxella catarrahalis 2604; unit assumed. As to the method:
as §1, §2, §3, §4

The test system of data set [4] is Escherichia coli JUHL. The description is as above. The format is cell-based. Particulars: Table 1, Assay A, BHI agar, 35-37° C., about 20 to 24 hours; code D = Escherichia coli JUHL; unit assumed. As to the method: as §1, §2, §3, §4
Data set [5] relates to Staphylococcus aureus ATCC 6538P. The data set is described as above. The format is cell-based. Particulars: Table 1, Assay A, BHI agar, 35-37° C., about 20 to 24 hours; code A = Staphylococcus aureus ATCC 6538P; unit assumed. The procedure: as §1, §2, §3, §4
The subject of data set [6] is Enterococcus faecalis PIU 1967. Described as above. Type of data set: cell-based. Particulars: Table 1, Assay A, BHI agar, 35-37° C., about 20 to 24 hours; code B = Enterococcus faecalis PIU 1967; unit assumed. As to the method: as §1, §2, §3, §4
Data set [7] has as its system Streptococcus pneumoniae ATCC 6303. As to the kind of experiment: Assay B: in vitro antibacterial activity, broth microdilution MIC (NCCLS). Type of data set: cell-based. Particulars: Table 2, Assay B, Mueller Hinton broth with 3% lysed horse blood, 20 to 24 hr; code F = Streptococcus pneumoniae ATCC 6303; unit assumed. The gist of the method:
(§5)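 Serial two-fold dilutions in cation-adjusted Mueller Hinton broth; inoculum ~5×10^5 CFU/mL from overnight cultures; 35° C, ambient air, 16 to 20 hr. MIC read visually as lowest concentration completely inhibiting growth. S. pneumoniae: 3% lysed horse blood, 20 to 24 hr; H. influenzae: 5 g/L yeast extract, 0.3 mmol/L hematin, 15 mg/L NAD, 20 to 24 hr.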

The subject of data set [8] is Haemophilus influenzae DILL AMP R. Described as above. Type of data set: cell-based. Particulars: Table 2, Assay B, Mueller Hinton broth with yeast extract, hematin and NAD, 20 to 24 hr; code E = Haemophilus influenzae DILL AMP R; unit assumed. The procedure, abridged: as §5
For data set [9], the system named is Escherichia coli JUHL. The data set is described as above. Type of data set: cell-based. Particulars: Table 2, Assay B, cation-adjusted Mueller Hinton broth, 35° C., 16 to 20 hr; code D = Escherichia coli JUHL; unit assumed. The procedure, abridged: as §5
Data set [10] deals with Staphylococcus aureus ATCC 6538P. The data set is described as above. Type of data set: cell-based. Particulars: Table 2, Assay B, cation-adjusted Mueller Hinton broth, 35° C., 16 to 20 hr; code A = Staphylococcus aureus ATCC 6538P; unit assumed. The procedure, abridged:
as §5

Data set [11] has as its system Enterococcus faecalis PIU 1967. Described as above. The format is cell-based. Particulars: Table 2, Assay B, cation-adjusted Mueller Hinton broth, 35° C., 16 to 20 hr; code B = Enterococcus faecalis PIU 1967; unit assumed. The gist of the method:
as §5

As for `Br.CC1Cc2sc(-c3ccc4c(=O)c(C(=O)O)cn(C5CC5)c4c3)cc2CN1` (stereo not shown) [Example 13, 1-cyclopropyl-7-(6-methyl-4,5,6,7-tetrahydrothieno[3,2-c]pyridin-2-yl)-4-oxo-1,4-dihydro-3-quinolinecarboxylic acid hydrobromide], the Antibacterial Activity (MIC's), F in data set [1] was determined as 0.25 µg/mL. Further, the Antibacterial Activity (MIC's), E in data set [2] worked out at 0.25 µg/mL. In data set [3], this molecule showed an Antibacterial Activity (MIC's), C of 0.2 µg/mL. In addition, the Antibacterial Activity (MIC's), D in [4] turned out to be 0.2 µg/mL. In addition, the Antibacterial Activity (MIC's), A in data set [5] is 0.1 µg/mL. Also, in data set [6], the Antibacterial Activity (MIC's), B turned out to be 0.2 µg/mL.

In data set [1], `Br.CC1(C)CNCc2cc(-c3ccc4c(=O)c(C(=O)O)cn(C5CC5)c4c3OC(F)F)sc21` [Example 28] yielded an Antibacterial Activity (MIC's), F of 1 µg/mL. The Antibacterial Activity (MIC's), E in [2] was determined as 0.25 µg/mL. Besides, the Antibacterial Activity (MIC's), C in [3] worked out at 0.2 µg/mL. Also, the Antibacterial Activity (MIC's), D in data set [4] came out at 0.78 µg/mL. In addition, in [5], the Antibacterial Activity (MIC's), A was 0.2 µg/mL. The same molecule yielded an Antibacterial Activity (MIC's), B in data set [6] of 0.78 µg/mL.

Consider `CC1CNCc2sc(-c3ccc4c(=O)c(C(=O)O)cn(C5CC5)c4n3)cc21.Cl` (stereo not shown) [Example 32, 1-cyclopropyl-7-(4-methyl-4,5,6,7-tetrahydrothieno(2,3-c)pyrdin-2-yl)-4-oxo-1,4-dihydro[1,8]naphthyridine-3-carboxylic acid hydrochloride], for which the Antibacterial Activity (MIC's), F in [1] stood at 1 µg/mL. In data set [2], the Antibacterial Activity (MIC's), E was 0.25 µg/mL. In addition, the Antibacterial Activity (MIC's), C in data set [3] was 0.2 µg/mL. Further, the Antibacterial Activity (MIC's), D in data set [4] was determined as 0.39 µg/mL. This molecule also showed an Antibacterial Activity (MIC's), A in data set [5] of 0.2 µg/mL. Also, in data set [6], the Antibacterial Activity (MIC's), B was determined as 0.39 µg/mL.

With `O=C(O)c1cn(C2CC2)c2nc(-c3cc4c(s3)CCCC4O)c(F)cc2c1=O` (stereo not shown) [Example 35, 1-cyclopropyl-6-fluoro-7-(4-hydroxy-4,5,6,7-tetrahydro-1-benzothien-2-yl)-4-oxo-1,4-dihydro[1,8]naphthyridine-3-carboxylic acid], the Antibacterial Activity (MIC's), F in [1] was determined as 0.5 µg/mL. For the same molecule, in data set [2], the Antibacterial Activity (MIC's), E is 0.06 µg/mL. The same molecule showed an Antibacterial Activity (MIC's), C in data set [3] of 0.05 µg/mL. This molecule also returned an Antibacterial Activity (MIC's), D in data set [4] of 0.78 µg/mL. The molecule also registered an Antibacterial Activity (MIC's), A in data set [5] of 0.05 µg/mL. Also, in data set [6], the Antibacterial Activity (MIC's), B was determined as 0.78 µg/mL.

Turning to `COc1c(-c2cc3c(s2)SCCC3N)ccc2c(=O)c(C(=O)O)cn(C3CC3)c12.Cl` (stereo not shown) [Example 37, 7-(4-amino-5,6-dihydro-4H-thieno[2,3-b]thiopyran-2-yl)-1-cyclopropyl-8-methoxy-4-oxo-1,4-dihydro-3-quinolinecarboxylic acid hydrochloride], the Antibacterial Activity (MIC's), F in data set [1] turned out to be 0.25 µg/mL. This molecule displayed an Antibacterial Activity (MIC's), E in [2] of 0.125 µg/mL. For the same molecule, in [3], the Antibacterial Activity (MIC's), C was 0.1 µg/mL. Further, the Antibacterial Activity (MIC's), D in data set [4] came out at 0.2 µg/mL. Further, in [5], the Antibacterial Activity (MIC's), A turned out to be 0.05 µg/mL. This molecule also came in with an Antibacterial Activity (MIC's), B in [6] of 0.1 µg/mL.

Regarding `COc1c(-c2cc3c(s2)CC(O)C3)ccc2c(=O)c(C(=O)O)cn(C3CC3)c12` (stereo not shown) [Example 45, 1-cyclopropyl-7-(5-hydroxy-5,6-dihydro-4H-cyclopentarblthien-2-yl)-8-methoxM-4-oxo-1,4-dihydro-3-quinolinecarboxylic acid], the Antibacterial Activity (MIC's), F in data set [1] amounted to 0.25 µg/mL. This molecule yielded an Antibacterial Activity (MIC's), E in data set [2] of 0.03 µg/mL. Also, the Antibacterial Activity (MIC's), C in data set [3] was 0.1 µg/mL. Further, the Antibacterial Activity (MIC's), D in data set [4] was determined as 0.39 µg/mL. For the same molecule, the Antibacterial Activity (MIC's), A in [5] came to 0.05 µg/mL. In [6], this molecule displayed an Antibacterial Activity (MIC's), B of 0.2 µg/mL.

As to `COc1c(-c2cc3c(s2)CC(O)CC3)ccc2c(=O)c(C(=O)O)cn(C3CC3)c12` (stereo not shown) [Example 47, 1-cyclopropyl-7-(6-hydroxy-4,5,6,7-tetrahydro-1-benzothien-2-yl)-8-methoxy-4-oxo-1,4-dihydro-3-quinolinecarboxylic acid], the Antibacterial Activity (MIC's), F in data set [1] was 0.5 µg/mL. Also, in data set [2], the Antibacterial Activity (MIC's), E is 0.5 µg/mL. The Antibacterial Activity (MIC's), C in [3] was 0.02 µg/mL. In data set [4], this molecule came in with an Antibacterial Activity (MIC's), D of 1.56 µg/mL. Besides, in data set [5], the Antibacterial Activity (MIC's), A came out at 0.01 µg/mL. In data set [6], this molecule gave an Antibacterial Activity (MIC's), B of 0.2 µg/mL.

Take `COc1c(-c2cc3c(s2)CCCC3=O)ccc2c(=O)c(C(=O)O)cn(C3CC3)c12` [Example 50, 1-cyclopropyl-8-methoxy-4-oxo-7-(4-oxo-4,5,6,7-tetrahydro-1-benzothien-2-yl)-1,4-dihydro-3-quinolinecarboxylic acid]: the melting point was in the range of 266 to 267 °C.

As to `COc1c(-c2cc3c(s2)C(N)CCC3)ccc2c(=O)c(C(=O)O)cn(C3CC3)c12.Cl` (stereo not shown) [Example 201, 7-(7-amino-4,5,6,7-tetrahydro-1-benzothien-2-yl)-1-cyclopropyl-8-methoxy-4-oxo-1,4-dihydro-3-quinolinecarboxylic acid hydrochloride], the melting point fell in the range of 174 to 178 °C. For the same molecule, in [7], the Antibacterial Activity (MIC's), F was found to be 0.03 µg/mL. Moreover, the Antibacterial Activity (MIC's), E in [8] amounted to 0.03 µg/mL. The molecule further registered an Antibacterial Activity (MIC's), D in [9] of 0.125 µg/mL. The Antibacterial Activity (MIC's), A in [10] was 0.015 µg/mL. This molecule also registered an Antibacterial Activity (MIC's), B in [11] of 0.06 µg/mL.

`COc1c(-c2cc3c(s2)CCC(C)(C)C3O)ccc2c(=O)c(C(=O)O)cn(C3CC3)c12` (stereo not shown) [Example 213, 1-cyclopropyl-7-(4-hydroxy-5,5-dimethyl-4,5,6,7-tetrahydro-1-benzothien-2-yl)-8-methoxy-4-oxo-1,4-dihydro-3-quinolinecarboxylic acid] displayed a melting point of 93 to 94 °C. Moreover, the Antibacterial Activity (MIC's), F in [7] is 0.5 µg/mL. The Antibacterial Activity (MIC's), E in data set [8] is 0.25 µg/mL. In data set [9], this molecule returned an Antibacterial Activity (MIC's), D of 0.5 µg/mL. In [10], this molecule yielded an Antibacterial Activity (MIC's), A of 0.03 µg/mL. For the same molecule, the Antibacterial Activity (MIC's), B in data set [11] came out at 0.5 µg/mL.

For `COc1c(-c2cc3c(s2)C(N)CCC3)c(F)cc2c(=O)c(C(=O)O)cn(C3CC3)c12.Cl` (stereo not shown) [Example 228, 7-(7-amino-4,5,6,7-tetrahydro-1-benzothien-2-yl)-1-cyclopropyl-6-fluoro-8-methoxy-4-oxo-1,4-dihydro-3-quinolinecarboxylic acid hydrochloride], the melting point is 148 to 153 °C (dec.). Further, the Antibacterial Activity (MIC's), F in data set [7] came to 0.015 µg/mL. The molecule also yielded an Antibacterial Activity (MIC's), E in [8] of 0.015 µg/mL. In data set [9], this molecule yielded an Antibacterial Activity (MIC's), D of 0.06 µg/mL. The molecule also gave an Antibacterial Activity (MIC's), A in [10] of 0.008 µg/mL. Further, the Antibacterial Activity (MIC's), B in data set [11] was determined as 0.03 µg/mL.

Consider `COc1c(-c2cc3c(s2)CCC(C)(C)/C3=N\O)ccc2c(=O)c(C(=O)O)cn(C3CC3)c12` [Example 233, 1-cyclopropyl-7-((4E/Z)-4-(hydroxyimino)-5,5-dimethyl-4,5,6,7-tetrahydro-1-benzothien-2-yl)-8-methoxy-4-oxo-1,4-dihydro-3-quinolinecarboxylic acid], for which the melting point was in the range of 135 to 138 °C. This molecule also returned an Antibacterial Activity (MIC's), F in [7] of 2 µg/mL. The Antibacterial Activity (MIC's), E in data set [8] came to 0.5 µg/mL. The same molecule yielded an Antibacterial Activity (MIC's), D in [9] of 8 µg/mL. Moreover, in [10], the Antibacterial Activity (MIC's), A is 0.03 µg/mL. Besides, the Antibacterial Activity (MIC's), B in data set [11] was determined as 0.5 µg/mL.
